Results on 5 molecules are retold here after publication PMC10108345, “Differentiating Inhibition Selectivity and Binding Affinity of Isocitrate Dehydrogenase 1 Variant Inhibitors” (Journal of Medicinal Chemistry, 2023).

Structures are written as SMILES. Read-outs that look alike come from different tables or passages of the source.

Test [1] deals with T1, IDH1 R132H (Homo sapiens, UniProt O75874, R132H).
T1 construct: made in house; host or cells: Escherichia coli BL21(DE3) pLyS
Put plainly: Differential scanning fluorimetry (DSF) thermal shift, IDH1 R132H. The test is classed as binding. Particulars: largest change in Tm of IDH1 ([…]) with 3-100 μM inhibitor. The procedure: (§1) Thermal shift experiments were carried out using Sypro Orange and a CFX96 Touch Real-Time PCR Detection System (Bio-Rad) machine.[42] […] The standard assay buffer contains 50 mM tris–HCl at pH 7.5. Various concentrations of compounds (1% DMSO final) were mixed with IDH1 for thermal stabilization studies. […] Bio-Rad CFX Manager was used to determine the melting temperature, Tm.

Test [2] concerns the target T1, IDH1 R132H. As to the kind of experiment: Absorbance turnover assay (NADPH, 340 nm), IDH1 R132H-catalyzed conversion of 2OG to 2HG. Conditions: for IC50: IDH1 R132H (30 nM), 2OG to 2HG, 100 mM tris-HCl, 10 mM MgCl2, pH 8.0; for Selectivity against IDH1 R132H over IDH1 wt: IC50 (IDH1 wt)/IC50 (IDH1 R132H). Format: biochemical. As to the method:
(§2) IDH1 activities were measured spectrophotometrically by monitoring changes in NADPH absorbance at 340 nm.[10] […] The difference in absorbance, ΔA340, in the linear range of the reaction profile was converted to % residual activity using a DMSO control as the 100% residual activity reference. […] Experiments were performed in (at least) triplicate. The standard assay buffer for IDH1 consists of 100 mM tris–HCl, 10 mM MgCl2, 0.005% (v/v) Tween 20, pH 8.0, 0.2 mM DTT, and 0.1 mg/mL BSA. In general, compounds [25 μL, 0.4% (v/v) DMSO] were pre-incubated with IDH1 (25 μL) for 12 min, followed by addition of DL-isocitrate/2OG (25 μL) and NADP^+/NADPH (25 μL) to initiate the reaction. The substrate/cofactor concentrations were optimized by determining KM values for substrates/cofactors as described.[10]

The target in test [3] is T2, wt IDH1 (Homo sapiens, UniProt O75874).
T2 construct: made in house; host or cells: Escherichia coli BL21(DE3) pLyS
Put plainly: Differential scanning fluorimetry (DSF) thermal shift, wt IDH1. The test is classed as binding. Particulars: for thermal stabilisation of wt IDH1 by DSF: inhibitor 3.125-100 μM, in words; for Δ Tm/°C by DSF wt IDH1: largest change in Tm of IDH1 ([…]) with 3-100 μM inhibitor. As to the method: as §1
Background: DSF heats the sample and reads unfolding from a dye or from intrinsic fluorescence.

Test [4] deals with T2, wt IDH1. Put plainly: Absorbance turnover assay (NADPH, 340 nm), wt IDH1-catalyzed conversion of isocitrate to 2OG. Particulars: wt IDH1 (2 nM). Format: biochemical. As to the method:
(Figure 3, Scheme 1). […] We employed ^1H NMR (700 MHz) spectroscopy to simultaneously monitor NADPH, NADP^+, 2OG, and 2HG levels (Figure S3) in order to validate observations from the absorbance assays.
as §2

Test [5] concerns the target T1, IDH1 R132H. Put plainly: Isothermal titration calorimetry (ITC), IDH1 R132H. The test is classed as binding. Conditions: 40 μM IDH1, 50 mM tris-HCl pH 7.5, 25 °C. The procedure: (§3) ITC was conducted using a Malvern MicroCal PEAQ-ITC Automated machine (Malvern Panalytical). In general, IDH1 was prepared in 50 mM tris–HCl, pH 7.5, and the compounds were dissolved in the same buffer. 400 μL of cell solution containing 40 μM IDH1 [4% (v/v) DMSO] and 200 μL of the titrant containing 200 or 400 μM compound [2% or 4% (v/v) DMSO] were transferred to an ITC plate (Malvern Panalytical WEL020854-010). […] The injection setup consisted of 19 injections, with 1 initial injection of 0.4 μL and 18 subsequent injections of 2.0 μL each with 150 s between the injections. Thermodynamic parameters were obtained using MicroCal PEAQ-ITC analysis software.

Test [6] has as its target T1, IDH1 R132H. As to the kind of experiment: Circular dichroism (CD) melting temperature, IDH1 R132H. Format: binding. Particulars: inhibitor 42 μM, IDH 4.2 μM (0.2 mg/mL); read-out: Δ Tm/°C by CD IDH1 R132H. As to the method: (§4) CD spectra were acquired using a Chirascan CD spectrometer (Applied Photophysics) with a Peltier temperature-control cell holder. Experiments were carried out in a 0.1 cm path length quartz cuvette at 20 °C. […] Spectra were averaged (n = 3) and smoothed (window size = 7) using the Savitzky–Golay filter. The mean residue ellipticity (MRE) was calculated according to the formula [drawing 1] where θ is the degree of ellipticity, N is the number of amino acids, c is the concentration (mol/L), and l is the path length (cm).
(§5) Measurements were conducted in 2 °C increments. The melting temperature was calculated using a Boltzmann sigmoidal model in GraphPad Prism v5.04.
(Circular dichroism is the unequal absorption of left and right circularly polarised light.)

In test [7] the test system is IDH1 R132H. Conditions: Table S1; "/" = different incubation times; ref 2 (supplementary references); read-out: IC50/nM (reported) IDH1 R132H; cited from earlier work.
For test [8], the target named is T1, IDH1 R132H. As to the kind of experiment: Ligand-observed 1H NMR (CPMG-edited, 700 MHz) binding, IDH1 R132H. Particulars: line broadening, 10 μM inhibitor, 50 mM tris-D11-HCl pH 7.5. As to the method:
(§6) Additional solvent presaturation was applied for 2 s. Samples contained 160 μL of 10 μM compound (0.2% DMSO) in 50 mM tris-D11-HCl, pH 7.5 in 90% H2O/10% D2O (v/v). […] 200 or 400 scans per IDH concentration were recorded, and signals corresponding to the compound were integrated and processed using TopSpin 3.6.1 software.

Test [9] addresses T2, wt IDH1. As to the kind of experiment: Circular dichroism (CD) melting temperature, wt IDH1. Format: binding. Particulars: inhibitor 42 μM, IDH 4.2 μM (0.2 mg/mL); read-out: Δ Tm/°C by CD wt IDH1. The procedure: as §4, §5
The target in test [10] is T2, wt IDH1. As to the kind of experiment: Isothermal titration calorimetry (ITC), wt IDH1. The test is classed as binding. Conditions: 40 μM IDH1, 50 mM tris-HCl pH 7.5, 25 °C. The procedure:
as §3
For orientation: In ITC the heat of successive injections is recorded.

Test [11] deals with T2, wt IDH1. As to the kind of experiment: Ligand-observed 1H NMR (CPMG-edited, 700 MHz) binding, wt IDH1. Particulars: line broadening, 10 μM inhibitor, 50 mM tris-D11-HCl pH 7.5. The procedure:
as §6

Test [12] concerns the target T1, IDH1 R132H. As to the kind of experiment: Non-denaturing MS binding, IDH1 R132H. Conditions: Figure S7b. As to the method:
(§7) Non-denaturing mass spectra were obtained using a quadrupole time-of-flight mass spectrometer (Synapt HD MS, Waters, Manchester, UK).[44],[45] […] Protein concentrations were measured using a Nanodrop spectrometer (Thermo Scientific NanoDrop One). Compounds were dissolved in MeOH to avoid DMSO interference with mass spectra. IDH1 (20 μL of 50 μM final) and the compound of interest (1–4% (v/v) MeOH) in 200 mM ammonium acetate at pH 7.5 were pipetted into wells of a sample plate of an automated chip-based nano-electrospray ion source (TriVersa Nanomate, Advion, Ithaka, NY, USA). Compounds were serially diluted in buffer and mixed with IDH1 diluted in buffer. The mixture was sprayed through a nozzle in a Nanomate chip at a spray voltage of 1.8–2.0 kV (spray backing gas pressure 0.8–1.0 psi, inlet pressure 3.8 mbar). […] Data collection and analyses used Waters MassLynx software. Mass spectra were calibrated externally using CsI solution. KD values were calculated using eq 2 as reported[46] at each compound concentration and are reported as an average across multiple concentrations. For inhibitors with a binding stoichiometry of two inhibitors/IDH dimer, the inhibitor-bound protein peak intensity used was a sum of first and second inhibitor-bound protein peak intensities. Data for the IDH1 dimer m/z = 20^+ charge state are shown. For clarity, only 2× NADPH bound protein peaks are annotated.

The target in test [13] is T2, wt IDH1. Put plainly: Non-denaturing MS binding, wt IDH1. Conditions: Figure S7a. As to the method:
as §7

Where [14] appears, read: isocitrate to 2OG, 100 mM tris-HCl, 10 mM MgCl2, pH 8.0, read-out: IC50/nM wt IDH1.

T1 sequence (O75874 whole entry R132H): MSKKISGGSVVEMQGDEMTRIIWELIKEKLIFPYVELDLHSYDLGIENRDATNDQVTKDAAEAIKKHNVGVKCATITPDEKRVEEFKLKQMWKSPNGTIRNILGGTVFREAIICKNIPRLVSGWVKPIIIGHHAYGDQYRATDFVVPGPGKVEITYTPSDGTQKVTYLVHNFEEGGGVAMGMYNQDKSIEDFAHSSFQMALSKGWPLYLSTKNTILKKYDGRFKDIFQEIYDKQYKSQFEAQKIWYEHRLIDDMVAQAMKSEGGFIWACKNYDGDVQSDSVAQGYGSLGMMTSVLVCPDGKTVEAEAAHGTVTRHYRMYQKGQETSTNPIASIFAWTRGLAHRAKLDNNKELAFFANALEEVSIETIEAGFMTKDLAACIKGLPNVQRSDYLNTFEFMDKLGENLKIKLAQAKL
T2 sequence (O75874 whole entry): as the sequence (O75874 whole entry R132H) above, with H132R counted along it

`O=C(Nc1cccc(C(F)(F)F)c1)Nc1cc(S(=O)(=O)NC2CC2)ccc1-c1ccsc1` [AGI-6780]: the “Δ Tm/°C by DSF IDH1 R132H” value in test [1] worked out at 1.3 °C. Besides, the IC50 in test [2] was > 10000 nM. In [3], the “thermal stabilisation of wt IDH1 by DSF” value is “weakly stabilise” and the “Δ Tm/°C by DSF wt IDH1” value worked out at 3.3 °C. Further, in test [4] (setting [14]), the IC50 was > 10000 nM.
For the molecule `Cc1ccccc1C(C(=O)NC1CCCCC1)N(C(=O)Cn1cnc2ccccc21)c1cccc(F)c1` (stereo not shown) [Agios135], the “Δ Tm/°C by DSF IDH1 R132H” value in test [1] was found to be 6.2 °C. Also, in test [2], the “inhibitory selectivity for IDH1 R132H over wt IDH1” value is > 500 fold, the “Selectivity against IDH1 R132H over IDH1 wt” value is >556 and the IC50 stood at 18 nM. Moreover, in test [3], the “Δ Tm/°C by DSF wt IDH1” value is 7.5 °C. Moreover, the IC50 in test [4] (setting [14]) is > 10000 nM.
Consider `C[C@H]1C[C@@H](n2c(Nc3ccc(OC(F)(F)F)cc3)nc3cc(CCC(=O)O)ccc32)CC(C)(C)C1` [BAY-1436032], for which the “Δ Tm/°C by DSF IDH1 R132H” value in test [1] turned out to be 9.9 °C. Also, in test [3], the “Δ Tm/°C by DSF wt IDH1” value came to 11.6 °C.
`CC(C)(O)CNc1nc(Nc2ccnc(C(F)(F)F)c2)nc(-c2cccc(C(F)(F)F)n2)n1` [Enasidenib]: the Kd (commonly the free concentration of one partner at which half of the binding sites on the other are occupied at equilibrium, for simple one-to-one binding) was > 400 µM in [5], 12 µM in [8], > 400 µM in test [10] and 14 µM in [11]. The ΔTm at 42 µM stood at 1.9 °C in test [6] and 4.4 °C in [9]. The IC50 in test [7] is 48 nM; in [2] it was > 10000 nM; in test [4] (setting [14]) it was > 10000 nM. Besides, the “Δ Tm/°C by DSF IDH1 R132H” value in test [1] was determined as 1.5 °C. Moreover, the “thermal stabilisation of wt IDH1 by DSF” value in test [3] is listed as “weakly stabilise”. Moreover, the “Δ Tm/°C by DSF wt IDH1” value in test [3] was 4.4 (4.4) °C.
As to `COc1c(C)cc(NC(=O)c2nn(Cc3ccc(F)cc3)c3c2CN(C(=O)c2ccc[nH]2)C[C@]3(C)C(N)=O)cc1C` [GSK864], the equilibrium dissociation constant (Kd) in test [5] is > 400 µM; in test [8] it was 4.1 µM; in [10] it was > 400 µM; in [11], 2.7 µM. Besides, the ΔTm at 42 µM turned out to be 8.7 °C in test [6] and 6.7 °C in test [9]. In test [12], the “stoichiometry, inhibitors per IDH1 dimer, IDH1 R132H” value is 2. Further, the “Δ Tm/°C by DSF IDH1 R132H” value in test [1] came out at 7.9 °C. Besides, in test [13], the “stoichiometry, inhibitors per IDH1 dimer, wt IDH1” value stood at 2. In addition, the “inhibitory selectivity for IDH1 R132H over wt IDH1” value in test [2] is listed as > 40 fold. The “Selectivity against IDH1 R132H over IDH1 wt” value in test [2] was determined as 55. The IC50 in [2] is 20 nM; in test [4] (setting [14]), 1100 nM; in [4] (read-out: IC50 for inhibition of wt IDH1), < 10000 nM. In [3], the “Δ Tm/°C by DSF wt IDH1” value came to 9.1 °C.
